Measurements published in patent US20170349860A1, “ENZYME STABILIZERS” (Henkel AG & Co. KGaA, priority 2014, published 2017).

Test system: protease
Test: Storage stability of protease in detergent formulation: residual proteolytic activity by AAPF-pNA assay
Assay type: biochemical
Conditions: 1% protease, 1% (w/w) candidate compound in detergent formulation; stored 8 weeks at 30° C.; AAPF-pNA substrate, 25° C., pH 8.6, 410 nm
Procedure: The storage stability of protease-containing detergents and cleaning agents was tested for use as enzyme stabilizers in the presence of candidate compounds. For this purpose, the candidate compounds were formulated in the presence of up to 1% (w/w) 1,2-propanediol in a detergent or cleaning agent formulation (see Table 2). The protease (1% PUR) was then added to the formulation, and the formulation stored for 8 weeks at 30° C.
In parallel batches, the proteolytic activity of 1% protease was determined in 4% PG (1,2-propanediol), 85% matrix (see Table 1), then, each following incubation with 1% of the candidate compound (specified in w/w; QS 100% with water) determined in half of the batches in the formulation as indicated in Table 1 by the release of the chromophore para-nitroaniline from the succinyl-alanine-alanine-proline-phenylalanine para-nitroanilide substrate (AAPF-pNA; Bachem L-1400). The release of the pNA caused an increase in the absorbance at 410 nm, the progress over time of which is a measure of enzymatic activity. […]
For evaluation, the initial values for the proteolytic activity of the agent in question were compared to the values determined after storage. […] The stabilizing effect of each tested compound is thus measured as a relative percentage increase in the residual protease activity.

## O=C(O)CCCCCNc1nc(NCCCCCC(=O)O)nc(NCCCCCC(=O)O)n1 [2,4,6-Tri-(6-aminocaproic acid)-1,3,5-triazine]
  Relative residual activity after incubation with KV: 136%
